How the values were obtained:
[1] = system: model mouse with obesity associated with enhanced hepatic lipogenesis or fatty liver; settings: model mouse continuously fed on a high-fat and high-sugar diet; cited from earlier work
[2] = system: model mouse with obesity not associated with the enhancement of hepatic lipogenesis or fatty liver; settings: model mouse continuously fed on a high-fat diet; cited from earlier work
plasma LDL-C = test: Effects on LDL-C level in high fat diet hamster; assay type: in vivo, Syrian hamsters; settings: high fat diet + 2% test substance, 21st day of the administration (FIG. 3)
Method: (§1) 6 week old male Syrian hamsters (Japan SLC, Inc.) were bred at a temperature of 23±3° C. and a light-dark cycle of 12 hours on a free feeding of standard diet for 11 days, and the hamsters were divided into 4 groups, namely, standard forage group (Standard) (n=4), high-fat diet group (n=8), EPA group (HF+EPA-E) (n=8), and DHA group (HF+DHA-E) (n=7). The standard diet used was CLEA Rodent Diet CE-2 (4.8% fat) manufactured by CLEA Japan, Inc. and the high fat diet (HF) used was Hypercholesterolemic Hamster Diet (9% sugar and fat 21% fat) manufactured by Wilson. The action of the EPA and the DHA on the LDL-C level was confirmed by using the hamsters fed on a high fat diet. Along with the experiment of the action of suppressing the body weight gain in Experimental Example 1, blood was collected at day 7, 14, and 21 after the starting of the administration, and plasma was separated by centrifugation. Plasma LDL-C concentration was measured by using a commercially available test reagent (Wako L-Type LDL-C manufactured by Wako Pure Chemical Industries).

CETP = test: Effects on CETP activity value in high fat diet hamster; assay type: in vivo, Syrian hamsters; settings: high fat diet + 2% test substance, 21st day of the administration (FIG. 4)
Method: as §1, with “CETP activity value” for “LDL-C level”, “CETP activity value” for “LDL-C concentration”, “a” for “a commercially available”, “(CETP activity assay kit” for “(Wako L-Type LDL-C”, “Bio Vision).” for “Wako Pure Chemical Industries).”

[3] = system: obesity model hamster fed on a high fat diet; test: Effect of suppressing the body weight gain in the obesity model hamster fed on a high fat diet; assay type: in vivo, Syrian hamsters; settings: for body weight gain rate on the 21st day: mixed diet of high fat diet + 2% test substance, compared with high-fat diet group (FIG. 1)
Method: 6 week old male Syrian hamsters (Japan SLC, Inc.) were bred at a temperature of 23±3° C. and a light-dark cycle of 12 hours on a free feeding of standard diet for 11 days, and the hamsters were divided into 4 groups, namely, standard forage group (Standard) (n=4), high-fat diet group (n=8), EPA group (HF+EPA-E) (n=8), and DHA group (HF+DHA-E) (n=7). The standard diet used was CLEA Rodent Diet CE-2 (4.8% fat) manufactured by CLEA Japan, Inc. and the high fat diet (HF) used was Hypercholesterolemic Hamster Diet (9% sugar and fat 21% fat) manufactured by Wilson. The effects of the EPA and DHA on the body weight gain were confirmed by using hamsters fed on a high fat diet (HF). During the feeding on the high fat diet, a mixed diet of high fat diet+2% EPA-E (comprising 98.24% EPA-E manufactured by Nippon Suisan Kaisha, Ltd.) was given to the EPA group, and a mixed diet of high fat diet+2% DHA-E (comprising 97.4% DHA-E manufactured by Equateq Ltd.) was given to the DHA group (with the diet changed once a day in the morning). The control group was given a high fat diet or a standard diet (comprising 4.8% fat) (with the diet changed once a day in the morning). The body weight was measured from the day of the start of the administration. The body weight gain rate on the 21st day was higher in the group fed on the high-fat diet group compared to the standard forage group, and the group fed on the high-fat diet was in the condition of obesity. […] This confirms that the action of suppressing the body weight gain (or reducing the body weight) of the EPA-E is realized by the action of suppressing (or reducing) the amount of fat, namely, the anti-obesity action.

| SMILES | suppression of body weight gain [1] | suppression of body weight gain [2] | plasma LDL-C level (plasma LDL-C) | plasma CETP activity value (CETP) | amount of fat in the epididymis on the 21st day ([3]; high fat diet + 2% test substance, 21st day (FIG. 2)) | body weight gain rate on the 21st day [3] |
| --- | --- | --- | --- | --- | --- | --- |
| CC/C=C\C/C=C\C/C=C\C/C=C\C/C=C\CCCC(=O)OCC [EPA-E, ethyl icosapentate] | effective in suppressing the body weight gain | ineffective | an action of suppressing the increase of the plasma LDL-C level was found | the action of suppressing the increase of the CETP activity was confirmed | increase in the amount of fat was significantly suppressed | lower than the control high-fat diet group |
| CC/C=C\C/C=C\C/C=C\C/C=C\C/C=C\C/C=C\CCC(=O)OCC [DHA-E, ethyl docosahexaenoate] |  |  | An action of increasing the plasma LDL-C level was found | increase in the CETP activity was confirmed |  | approximately equal to that of the high-fat diet group |

— patent publication US9345681B2, “Anti-obesity agent comprising high-purity EPA” (MOCHIDA PHARMACEUTICAL CO., LTD., priority 2011, dated 2016)
